Data taken from PMC11905876, “Population Pharmacokinetic Modeling of Certepetide in Human Subjects With Metastatic Pancreatic Ductal Adenocarcinoma” (Clinical Pharmacology in Drug Development, 2025).

Key:
[1] = Population pharmacokinetic analysis of certepetide plasma concentrations (first-in-human trial NCT03517176); assay type: in vivo; settings: for WT on Vc, effect of weight on Vc / WT on Vp, effect of weight on Vp: power model exponent
Protocol: The clinical aspects of this study were conducted at 3 clinical sites in Australia. All subjects gave their informed consent. The study enrolled subjects with metastatic PDAC and was a rising dose design, with certepetide doses of 0.2, 0.8, 1.6, and 3.2 mg/kg body weight. Each subject received a certepetide monotherapy run‐in followed by 28‐day cycles of certepetide with standard‐of‐care chemotherapy (nab‐paclitaxel and gemcitabine), as previously described.[19] Each 28‐day cycle involved dosing with nab‐paclitaxel, gemcitabine, and certepetide on days 1, 8, and 15. In each dosing instance, nab‐paclitaxel was given first intravenously at a dose of 125 mg/m^2 over 30 minutes. This was immediately followed by the administration of certepetide as a slow intravenous push over 1 minute. Gemcitabine was given as an intravenous infusion at a dose of 1000 mg/m^2 over 30 minutes. Samples for PK analysis were collected before certepetide dosing and at 3, 15, and 30 minutes and 1, 3, and 6 hours after completion of the certepetide infusion. PK collections were performed during a monotherapy run‐in period and on day 1 of chemotherapy cycles 1 and 6. Modeling was performed with all available data.
Certepetide concentrations in human plasma were determined using a liquid chromatography‐tandem mass spectrometry method across a concentration range of 50.0‐2500 ng/mL, with 50.0 ng/mL as the lower limit of quantification. Briefly, a plasma sample was spiked with a deuterated internal standard and then precipitated by methanol. After centrifugation, the supernatant was transferred to a clean tube and evaporated under nitrogen. Following reconstitution with 5% methanol:water, the sample was injected into a Shimadzu Nexera UPLC that used a Kinetex EVO‐C18 column for separation using first mobile phase A (0.1% formic acid in deionized water) followed by mobile phase B (0.1% formic acid in methanol). The multiple reaction monitoring transition was monitored on an ABSciex QTRAP 5500 mass spectrometer. The transitions used for certepetide and deuterated certepetide (+6) were 494.9 → 70.1 and 497.7 → 75.0, respectively. For intraday runs, the average accuracy and precision were 10.2% and 9.6%, respectively, at a concentration of 150 ng/mL. The inter‐day accuracy and precision were 10.2% and 9.7%, respectively.
The PK analysis dataset was composed of actual dates and times of dose and concentration samples. Post‐dose PK concentration data below the limit of quantification were accounted for using the M1 method (ie, excluded from the analysis).[22] Subject covariates at baseline were derived from the source data at the baseline visit, the screening visit, or another visit before the start of certepetide administration.
NONMEM software (version 7.5.1, ICON Development Solutions)[23] was used to perform nonlinear mixed‐effects modeling. Data assembly, graphical analyses, and model simulations were performed using NONMEM (version 7.5.1) and R (version 4.3.1).
A 2‐compartment model with linear elimination was used as the starting point for model development. Interindividual variability was included in structural model parameters (eg, central volume of distribution [Vc], clearance [CL], peripheral volume of distribution [Vp], and distribution clearance [Q]). Interindividual variability, assumed to have log‐normal distribution, was calculated using Equation (1). (1) θP,i=θP,typical·e^ηP,i
The residual variance was initially modeled using an additive and proportional error model (Equation 4), which accounted for […], assay error, model misspecification, and any potential data issues (eg, incorrect dose or sample collection times). (4) Yij=IPREDij×1+ε1,ij+ε2,ij
Model development continued by adding covariates in a stepwise fashion and assessing the change in objective function value (OFV). […]

[2] = autoradiography; ref data on file; cited from earlier work
Protocol: (§1) Certepetide is administered as a slow intravenous push over 1 minute shortly after the administration of chemotherapy and/or immunotherapy. Certepetide is thought to be metabolized into its component amino acids, as expected for small peptides.

plasma proteins = settings: ref data on file; cited from earlier work
Protocol: as §1

[3] = tested on: patients with unresectable metastatic PDAC; set-up: method as in PMID 35803294, PMID 36982773; settings: cited from earlier work
[4] = final population PK model, reference 70 kg
[5] = interim population PK model with body weight and age on clearance, typical value

Dose linearity of PK ([1]; concentration-time and dose-normalized curves at 0.2, 0.8, 1.6 and 3.2 mg/kg): linear PKs
Vc, central volume of distribution ([1]; final population PK model (2-compartment, linear elimination, NONMEM), 31 patients with metastatic PDAC, 0.2-3.2 mg/kg IV push over 1 min with nab-paclitaxel and gemcitabine, plasma LC-MS/MS, typical value, reference 70 kg): 5.87 L
Q, intercompartmental clearance ([1]; final population PK model, 31 patients with metastatic PDAC, IV, typical value): 24.9 L/h
CLR, renal clearance (dependent on CrCL) ([1]; final population PK model, 31 patients with metastatic PDAC, IV, typical value at reference CrCL 90 mL/min, purely model-derived): 4.32 L/h
Vp, peripheral volume of distribution ([1]; final population PK model, 31 patients with metastatic PDAC, IV, typical value, reference 70 kg): 10.3 L
CLNR, nonrenal clearance (independent of CrCL) ([1]; final population PK model, 31 patients with metastatic PDAC, IV, typical value, purely model-derived): 2.56 L/h
WT on Vc, effect of weight on Vc [1, 4]: 0.933
WT on Vp, effect of weight on Vp [1, 4]: 0.879
WT on Vc, effect of weight on Vc ([1]; interim population PK model): 0.940
WT on Vp, effect of weight on Vp ([1]; interim population PK model): 0.885
Compound: CC(=O)N[C@H]1CSSC[C@@H](C(N)=O)NC(=O)[C@H](CC(=O)O)NC(=O)[C@@H]2CCCN2C(=O)CNC(=O)[C@H](CCCCN)NC(=O)[C@H](CC(=O)O)NC(=O)CNC(=O)[C@H](CCCNC(=N)N)NC1=O [Certepetide]
clearance ([1]; human, plasma, iv, interim population PK model with body weight and age on clearance, typical value, reference 70 kg, 60 years, read-out: CL, clearance (converted)): 118 mL/min
Vc, central volume of distribution ([1]; interim population PK model with body weight and age on clearance, 31 patients with metastatic PDAC, IV, typical value): 5.87 L
Q, intercompartmental clearance [1, 5]: 25.0 L/h
Vp, peripheral volume of distribution [1, 5]: 10.3 L
Route of elimination [2]: primarily undergoes renal elimination
Plasma protein binding (plasma proteins): does not bind to plasma proteins
Patients with ≥50% reduction in CA19-9 ([3]; cycle 5, day 1, certepetide with nab-paclitaxel and gemcitabine): 20 out of 22
Dose-limiting toxicities associated with the study drug ([3]; doses 0.2-3.2 mg/kg): no dose‐limiting toxicities
